Measured values: publication PMC12620000, “Exploring the feasibility of protein phosphatase 1–docking motif-mimetic cell-penetrating peptides for modulating prostate carcinogenesis” (JNCI Cancer Spectrum, 2025)
Where two headings read alike, the source gives them in different places. Where no end group is shown, it is not given here.

Tests used:
[1] = tested on: LNCaP cells; assay type: cell-based; settings: 24 h
Procedure: (§1) One mM peptide stocks were prepared as for fluorescent versions. Cells were grown to 60%-70% confluence in 96-well plates and treated with 1-20 μM peptides in RPMI-1640 (phenol red-free). After 24 or 48 hours at 37 °C, 5% CO2, PrestoBlue (1/10 dilution) was added for 30 minutes. Fluorescence (λAbs 560 nm/λEm 600 nm) was measured using an Infinite 200 PRO reader (Tecan). Each condition had 3-5 replicates, repeated in 3 independent experiments.
(§2) Figure 3. Synergistic reduction of prostate cancer cell viability by combined AR-BS peptides. […] B) Cells were treated with combinations of AR-BS peptides (5 or 10 μM of each peptide) for 24 hours to assess potential synergistic effects. Cell viability was evaluated using the PrestoBlue Cell Viability Reagent according to the manufacturer’s instructions. Percentage cell viability was calculated as the ratio between treatment and control conditions (cells without treatment). Results are expressed as mean (SD) percentage from 3 independent experiments with 5 replicates per condition. Statistical comparisons were performed using the Mann–Whitney U test. *P < .05. Abbreviations: AR-BS = androgen receptor–binding site; mitP = mitoparan.
(§3) Percentage cell viability was calculated from the ratio between treatment condition and control condition (cells with no treatment). Results are expressed as mean ± SD from three independent experiments with five replicates per condition.

[2] = tested on: PC3 cells; assay type: cell-based; settings: 24 h
Procedure: as §1, §2, §3

Substance | Cell viability, Mean ([1]; 5 μM) | Cell viability, Mean ([1]; 10 μM) | Cell viability, Mean ([1]; 20 μM) | Cell viability, Mean ([2]; 5 μM) | Cell viability, Mean ([2]; 10 μM) | Cell viability, Mean ([2]; 20 μM)
GSCKVFFKRAAKGKQK-NH2 [AR-BS1] | 97% | 96% | 94% | 89% | 89% | 81%
KVKPIYFHTGRKKRRQRRRPPQ-NH2 [AR-BS3] | 91% | 94% | 99% | 79% | 88% | 84%
RQLVHVVKWAKKL-NH2 [AR-BS2] | 95% | 96% | 83% | 93% | 87% | 81%
